Columns and labels:
Format in all cases: in vivo
[1] = tested on: ryegrass, Italian (Italian ryegrass, Lolium multiflorum); experiment: Test A preemergence; settings: Lolium multiflorum, pre-emergence, 240 h; for pest or weed control at 125 g/ha: 125 g ai/ha, Preemergence, visual injury rating after approximately 10 d, read-out: Ryegrass, Italian plant response rating (0 to 100 scale, 0 is no effect, 100 is complete control); for pest or weed control at 500 g/ha: 500 g ai/ha, preemergence, visual injury rating about 10 d after treatment, 0 to 100 scale (0 no effect, 100 complete control), read-out: Ryegrass, Italian plant response rating
How it was run: (§1)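 Ratings of 0 (no effect) to 100 (complete control) come from visual comparison with untreated controls roughly 10 d after treatment. Test chemicals, formulated in a non-phytotoxic solvent mixture with surfactant, were applied either as a preemergence directed soil spray on seeded soil or postemergence to one- to two-leaf plants 2 to 10 cm tall.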

[2] = tested on: pigweed (Amaranthus retroflexus); experiment: Test A preemergence; settings: Amaranthus retroflexus, pre-emergence, 240 h; for pest or weed control at 125 g/ha: 125 g ai/ha, Preemergence, visual injury rating after approximately 10 d, read-out: Pigweed plant response rating (0 to 100 scale, 0 is no effect, 100 is complete control); for pest or weed control at 500 g/ha: 500 g ai/ha, preemergence, visual injury rating about 10 d after treatment, 0 to 100 scale (0 no effect, 100 complete control), read-out: Pigweed plant response rating
[3] = tested on: barnyardgrass (Echinochloa crus-galli); experiment: Test A preemergence; settings: Echinochloa crus-galli, pre-emergence, 240 h; for pest or weed control at 125 g/ha: 125 g ai/ha, Preemergence, visual injury rating after approximately 10 d, read-out: Barnyardgrass plant response rating (0 to 100 scale, 0 is no effect, 100 is complete control); for pest or weed control at 500 g/ha: 500 g ai/ha, preemergence, visual injury rating about 10 d after treatment, 0 to 100 scale (0 no effect, 100 complete control), read-out: Barnyardgrass plant response rating
How it was run: as §1

[4] = tested on: ragweed (common ragweed, Ambrosia elatior); experiment: Test A preemergence; settings: Ambrosia artemisiifolia, pre-emergence, 240 h; for pest or weed control at 125 g/ha: 125 g ai/ha, Preemergence, visual injury rating after approximately 10 d, read-out: Ragweed plant response rating (0 to 100 scale, 0 is no effect, 100 is complete control); for pest or weed control at 500 g/ha: 500 g ai/ha, preemergence, visual injury rating about 10 d after treatment, 0 to 100 scale (0 no effect, 100 complete control), read-out: Ragweed plant response rating
How it was run: as §1

Kochia (Kochia scoparia) [5] = experiment: Test A preemergence; settings: Bassia scoparia, pre-emergence, 240 h; for pest or weed control at 125 g/ha: 125 g ai/ha, Preemergence, visual injury rating after approximately 10 d, read-out: Kochia plant response rating (0 to 100 scale, 0 is no effect, 100 is complete control); for pest or weed control at 500 g/ha: 500 g ai/ha, preemergence, visual injury rating about 10 d after treatment, 0 to 100 scale (0 no effect, 100 complete control), read-out: Kochia plant response rating
How it was run: as §1

[6] = tested on: giant foxtail (Setaria faberii); experiment: Test A preemergence; settings: Setaria faberi, pre-emergence, 240 h; for pest or weed control at 125 g/ha: 125 g ai/ha, Preemergence, visual injury rating after approximately 10 d, read-out: Foxtail, Giant plant response rating (0 to 100 scale, 0 is no effect, 100 is complete control); for pest or weed control at 500 g/ha: 500 g ai/ha, preemergence, visual injury rating about 10 d after treatment, 0 to 100 scale (0 no effect, 100 complete control), read-out: Foxtail, Giant plant response rating
How it was run: as §1

[7] = tested on: ducksalad (Heteranthera limosa); experiment: Test B flooded paddy test; settings: Heteranthera limosa, Flood, 250 g ai/ha; scale of 0 to 100 where 0 is no effect and 100 is complete control; read-out: Ducksalad plant response rating
How it was run: (§2)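 Percent control, visually estimated after 13–15 d in the greenhouse on a 0–100 basis, compares treated pots with untreated ones; compound was put into paddy water 3 cm above the soil when plants had two leaves.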

rice (Oryra sativa) = experiment: Test B flooded paddy test; settings: Oryza sativa, Flood, 250 g ai/ha; scale of 0 to 100 where 0 is no effect and 100 is complete control; read-out: Rice plant response rating
How it was run: as §2

[8] = tested on: sedge, umbrella (small-flower umbrella sedge, Cyperus difformis); experiment: Test B flooded paddy test; settings: Cyperus difformis, Flood, 250 g ai/ha; scale of 0 to 100 where 0 is no effect and 100 is complete control; read-out: Sedge, Umbrella plant response rating
How it was run: as §2

[9] = tested on: barnyardgrass (Echinochloa crus-galli); experiment: Test B flooded paddy test; settings: Echinochloa crus-galli, Flood, 250 g ai/ha; scale of 0 to 100 where 0 is no effect and 100 is complete control; read-out: Barnyardgrass plant response rating
How it was run: as §2

[10] = tested on: blackgrass (Alopecurus myosuroides); experiment: Test A postemergence; settings: Alopecurus myosuroides, post-emergence, 240 h, 125 g ai/ha, Postemergence; visual injury after approximately 10 d; 0 to 100 scale where 0 is no effect and 100 is complete control; read-out: Plant response rating, Blackgrass
How it was run: as §1

[11] = tested on: Galium (catchweed bedstraw, Galium aparine); experiment: Test A postemergence; settings: Galium, post-emergence, 240 h, 125 g ai/ha, Postemergence; visual injury after approximately 10 d; 0 to 100 scale where 0 is no effect and 100 is complete control; read-out: Plant response rating, Galium
How it was run: as §1

[12] = tested on: wheat (Triticum aestivum); experiment: Test A postemergence; settings: Triticum aestivum, post-emergence, 240 h, 125 g ai/ha, Postemergence; visual injury after approximately 10 d; 0 to 100 scale where 0 is no effect and 100 is complete control; read-out: Plant response rating, Wheat
How it was run: as §1

[13] = tested on: ryegrass, Italian (Italian ryegrass, Lolium multiflorum); experiment: Test A postemergence; settings: Lolium multiflorum, post-emergence, 240 h, 125 g ai/ha, Postemergence; visual injury after approximately 10 d; 0 to 100 scale where 0 is no effect and 100 is complete control; read-out: Plant response rating, Ryegrass, Italian
How it was run: as §1

[14] = tested on: pigweed (Amaranthus retroflexus); experiment: Test A postemergence; settings: Amaranthus retroflexus, post-emergence, 240 h, 125 g ai/ha, Postemergence; visual injury after approximately 10 d; 0 to 100 scale where 0 is no effect and 100 is complete control; read-out: Plant response rating, Pigweed
How it was run: as §1

corn (Zea mays) = experiment: Test A postemergence; settings: Zea mays, post-emergence, 240 h, 125 g ai/ha, Postemergence; visual injury after approximately 10 d; 0 to 100 scale where 0 is no effect and 100 is complete control
How it was run: as §1

[15] = tested on: barnyardgrass (Echinochloa crus-galli); experiment: Test A postemergence; settings: Echinochloa crus-galli, post-emergence, 240 h, 125 g ai/ha, Postemergence; visual injury after approximately 10 d; 0 to 100 scale where 0 is no effect and 100 is complete control; read-out: Plant response rating, Barnyardgrass
How it was run: as §1

[16] = tested on: ragweed (common ragweed, Ambrosia elatior); experiment: Test A postemergence; settings: Ambrosia artemisiifolia, post-emergence, 240 h, 125 g ai/ha, Postemergence; visual injury after approximately 10 d; 0 to 100 scale where 0 is no effect and 100 is complete control; read-out: Plant response rating, Ragweed
How it was run: as §1

Kochia (Kochia scoparia) [17] = experiment: Test A postemergence; settings: Bassia scoparia, post-emergence, 240 h, 125 g ai/ha, Postemergence; visual injury after approximately 10 d; 0 to 100 scale where 0 is no effect and 100 is complete control; read-out: Plant response rating, Kochia
How it was run: as §1

[18] = tested on: giant foxtail (Setaria faberii); experiment: Test A postemergence; settings: Setaria faberi, post-emergence, 240 h, 125 g ai/ha, Postemergence; visual injury after approximately 10 d; 0 to 100 scale where 0 is no effect and 100 is complete control; read-out: Plant response rating, Foxtail, Giant
How it was run: as §1

Row | Structure (SMILES) | pest or weed control at 125 g/ha [1] | pest or weed control at 500 g/ha [1] | pest or weed control at 125 g/ha [2] | pest or weed control at 500 g/ha [2] | pest or weed control at 125 g/ha [3] | pest or weed control at 500 g/ha [3] | pest or weed control at 125 g/ha [4] | pest or weed control at 500 g/ha [4] | pest or weed control at 125 g/ha (Kochia (Kochia scoparia) [5]) | pest or weed control at 500 g/ha (Kochia (Kochia scoparia) [5]) | pest or weed control at 125 g/ha [6] | pest or weed control at 500 g/ha [6] | pest or weed control at 250 g/ha [7] | pest or weed control at 250 g/ha (rice (Oryra sativa)) | pest or weed control at 250 g/ha [8] | pest or weed control at 250 g/ha [9] | pest or weed control at 125 g/ha [10] | pest or weed control at 125 g/ha [11] | plant injury at 125 g/ha [12] | pest or weed control at 125 g/ha [13] | also measured
1 | CN1C[C@H](c2ccc(C(F)(F)F)cc2)[C@@H](C(=O)Nc2ccccc2Br)C1=O [Compound 943] | 0% | 50% | 40% | 50% | 90% | 90% | 0% | 30% | 70% | 80% | 90% | 90% | 50% | 0% | 0% | 0% | 40% | 70% | 0% | 0% | pest or weed control at 125 g/ha [14]: 40%; Corn plant response rating (crop injury, 0 = no effect, 100 = complete kill) at 125 g/ha (corn (Zea mays)): 20%; pest or weed control at 125 g/ha [15]: 70%; pest or weed control at 125 g/ha [16]: 0%; pest or weed control at 125 g/ha (Kochia (Kochia scoparia) [17]): 30%; pest or weed control at 125 g/ha [18]: 90%
2 | CCOc1cccc([C@H]2CNC(=O)[C@@H]2C(=O)Nc2ccccc2F)c1 [Compound 949] | 0% | 0% | 0% | 0% | 70% | 100% | 0% | 0% | 20% | 50% | 60% | 70% | 100% | 15% | 0% | 30% | 0% | 0% | 0% | 0% | pest or weed control at 125 g/ha [14]: 0%; Corn plant response rating (crop injury, 0 = no effect, 100 = complete kill) at 125 g/ha (corn (Zea mays)): 0%; pest or weed control at 125 g/ha [15]: 90%; pest or weed control at 125 g/ha [16]: 0%; pest or weed control at 125 g/ha (Kochia (Kochia scoparia) [17]): 0%; pest or weed control at 125 g/ha [18]: 20%
3 | CN1C[C@H](c2csc(C(F)(F)F)c2)[C@@H](C(=O)Nc2ccccc2F)C1=O [Compound 958] | 0% | 20% | 0% | 30% | 90% | 90% | 20% | 60% | 0% | 90% | 90% | 90% | 100% | 15% | 0% | 55% | 30% | 30% | 0% | 0% | pest or weed control at 125 g/ha [14]: 0%; Corn plant response rating (crop injury, 0 = no effect, 100 = complete kill) at 125 g/ha (corn (Zea mays)): 0%; pest or weed control at 125 g/ha [15]: 70%; pest or weed control at 125 g/ha [16]: 0%; pest or weed control at 125 g/ha (Kochia (Kochia scoparia) [17]): 0%; pest or weed control at 125 g/ha [18]: 90%

Source: US12077503B2, “Substituted cyclic amides and their use as herbicides” (FMC CORPORATION, priority 2015, dated 2024)
